According to patent US9889105B2, “In vivo method for treating, inhibiting, and/or prophylaxis of cancer, such as pancreatic cancer” (U.S. Department of Veterans Affairs, priority 2010, dated 2018):

How the values were obtained:
[1] = test system: MIA-PaCa-2 xenograft tumor; experiment: Apoptosis in xenograft tumors (cleaved caspase 3, TUNEL, Bax/Bcl-2); assay type: in vivo, athymic (nude) mice
Procedure: FIG. 6C illustrates apoptosis. Top, tumor tissues were processed for Cleaved Caspase 3 immunohistochemistry. […] Caspase 3, Bax and Bcl-2 (middle) expressions of pancreatic tumors from same crocetinic acid-treated and control animals using Western Blot were carried out and Bax/Bcl-2 ratio was also determined (bottom). Columns, mean from six different animals; bars, SD (B and C). *, P<0.05; **, P<0.001 versus untreated control (Student's t test);
To explore whether the regression of tumor growth by crocetin is due to inhibition of proliferation, apoptotic cell death or both, we first evaluated PCNA (proliferating cell nuclear antigen) expression and then EGFR expression in tumors using histochemical analysis. […] Next, apoptosis by TUNEL assay was investigated in the tumors of mice treated with or without crocetin.

[2] = test system: EGFR; experiment: EGFR expression and phosphorylation in xenograft tumors (immunohistochemistry, Western blot); assay type: in vivo, athymic (nude) mice
Procedure: FIG. 6B illustrates expression of EGFR and Akt. Tissue sections were obtained from human pancreatic cancer tumors growing in nude mice as described in FIG. 5, and stained for pEGFR and pAkt as described in Materials and Methods section (below). Middle, EGFR and Akt expression of pancreatic tumors from same crocetinic acid-treated and untreated control animals using Western Blot as described in FIG. 4B, was determined. Phophorylated (p-EGFR) and total protein of EGFR and phophorylated Akt and total Akt expressed as ratio between them normalized with b-actin was shown (bottom);
The immuno-Western blot analyses were the same as described earlier by Banerjee et al. (Reference 26). Briefly, MIA-PaCa-2 and BxPC-3 cells following treatment with or without crocetin and tumor samples were homogenized. […] Protein concentration was measured by using the Comassie blue reagent assay (Pierce, Rockford, Ill.). […] The antigen-antibody reactions were detected with HRP-conjugated anti-rabbit or anti-mouse IgG for one hour in room temperature. Immunoreactions were visualized by the ECL ([…]) chemiluminescence reagent kit (Pierce, Rockford, Ill.) and relative expression of proteins were calculated by densitometric analyses using ID image Analysis Software version 3.6 (Eastman Kodak Company, Rochester, N.Y.). […]

[3] = in vivo; cited from earlier work
[4] = test system: pancreatic CSCs (pancospheres); experiment: Pancospheroid formation assay; assay type: cell-based; details: dose dependent, 0, 1, 5, 10, 20 μM
Procedure: FIG. 7C illustrates spheroid formation assay. Stemness pancreatic cancer cells ware determined using spheroid assay in PC versus CC in different concentrations (0, 1, 5, 10, 20 μM); and
Spheroids were prepared as previously described (Reference 17). Briefly, 1000 cells/well in DMEM/F12 (Invitrogen, France) supplemented with EGF (20 ng/ml, Invitrogen) and B27 (1×, Invitrogen) were distributed in ultra-low attachment plates 6 well plates. Plates were placed in a humidified atmosphere of 5% CO2 at 37° C. Numbers of pancosphers formation, after 6-8 days culture, were counted under a light microscopy and quantified by Celigo software.

[5] = test system: PCNA; experiment: PCNA histochemical analysis of xenograft tumor tissue; assay type: in vivo, athymic (nude) mice; details: versus untreated
Procedure: FIG. 6A illustrates expression of PCNA (proliferating cell nuclear antigen). Cell proliferation in tumor tissues, obtained from athymic mice as depicted in FIG. 5, was evaluated by staining for PCNA using histochemical analysis.
Immunohistochemical analysis was performed according to our previous described method (27) using Zymed broad range immunohistochemical kits (Zymed Laboratories, CA). Tumor tissue samples were fixed in 4% buffered formalin and embedded in paraffin. The serial sections of 5 μm were cut. The tissue sections were deparaffinized and were hydrated in different concentrations of ethanol (i.e. 100%, 90%, 70%, and 50%). Endogenous peroxidase activity was blocked at room temperature by incubating in hydrogen peroxide in methanol (1:9). Slides were washed with PBS (phosphate buffered saline) and nonspecific binding was blocked by blocking solution for 10 min. The sections were incubated with respective primary antibody in a humidified chamber at 4° C. overnight. The tissues were incubated with biotynylated secondary antibody (Zymed kit). The slides were then incubated with HRP (horseradish peroxidase) linked enzyme conjugate for 10 min. Positive reactions were visualized by incubating slides with stable 3,3′-diaminobenzidine (DAB) solution (Zymed kit) and counterstained with haematoxylin. The slides were dehydrated and mounted in permount for microscopic examination.

[6] = test system: EGFR; experiment: Western blot of EGFR (phosphorylated and total) in Panc-1 cells; assay type: cell-based, human; design: dose or concentration left out as unconfirmed; details: Panc-1, compared with CC
Procedure: (§1) FIG. 4B illustrates effect of purified crocetin (PC) and crude crocetin (CC) on EGFR (epidermal growth factor receptor), Akt signaling and Bax/Bcl-2 on Panc-1 cells.
(§2) The immuno-Western blot analyses were the same as described earlier by Banerjee et al. (Reference 26). Briefly, MIA-PaCa-2 and BxPC-3 cells following treatment with or without crocetin and tumor samples were homogenized. Then, both cell and tumor lysates were spun at 18000 g for 1 hr at 4° C., and the supernatants were collected for immunodetection. Protein concentration was measured by using the Comassie blue reagent assay (Pierce, Rockford, Ill.). Equal amount of protein were resolved in 10% SDS-PAGE, transferred onto nitrocellulose membranes. Membranes were blocked with super block (Pierce, Rockford, Ill.) followed by incubation with appropriate primary antibodies at 4° C., overnight. The antigen-antibody reactions were detected with HRP-conjugated anti-rabbit or anti-mouse IgG for one hour in room temperature. Immunoreactions were visualized by the ECL ([…]) chemiluminescence reagent kit (Pierce, Rockford, Ill.) and relative expression of proteins were calculated by densitometric analyses using ID image Analysis Software version 3.6 (Eastman Kodak Company, Rochester, N.Y.).

[7] = test system: pancreatic cancer cells; experiment: Cytotoxicity against pancreatic cancer cells; assay type: cell-based; details: dose- and time-dependent
Procedure: The human pancreatic adenocarcinoma cell lines MIA-PaCa-2, BxPC3, Capan-1 and ASPC-1 were obtained from the American Type Culture Collection (ATCC, Manassas, Va., USA) and grown in Dulbecco's modified Eagles medium (DMEM, Sigma Chemical Co, St Louis, Mo.) supplemented with 1 mM sodium pyruvate (Fisher Chemical Company), 100 U/ml of penicillin and 100 U/ml of streptomycin (Sigma Chemical Co, St Louis, Mo.) and 10% FBS (Hyclone, Road Logan, Utah) at 37° C. in a humidified tissue culture incubator containing 5% CO2 and 95% air. ˜70% confluent cells were treated with different concentrations (1-50 μM) of purified crocetinic acid and commercial crocetin for 72 h.

[8] = test system: DCLK-1; experiment: Western blot of DCLK1 expression; assay type: cell-based, human; design: dose or concentration left out as unconfirmed; details: Mia-PaCa2 cells
Procedure: FIG. 7D illustrates DCLK1 expression. Western blot analysis of DCLK1 after treatment of Mia-PaCa2 cells treated with 10 mM of CC and PC of #5, #3 and #1 HPLC fractions.
as §2

[9] = test system: Bax/Bcl-2; experiment: Western blot of Bax/Bcl-2 in Panc-1 cells; assay type: cell-based, human; details: Panc-1, Western blot
Procedure: as §1, §2

[10] = test system: BxPc3 cells; experiment: Proliferation assay in BxPC3 cells; assay type: cell-based, human; details: comparison to commercial crocetin
Procedure: (§3) Pancreatic cancer cells were plated at desired density onto 96-well corning tissue culture plates. After 24 hours, cells were treated for 72 hours with different concentrations (1-50 μM) of purified crocetin and crude/commercial crocetin. Cells were labelled with Click-it EdU and were fixed. Then fixed cells were incubated with anti-Oregon Green antibody conjugated to horseradish peroxidase and measured flurescent product (excitation/emission˜568/585).

[11] = test system: Sonic Hedgehog signaling pathway; experiment: Western blot of Sonic Hedgehog signaling pathway proteins and target genes; assay type: cell-based
Source text: FIG. 7A illustrates western blots of onic Hedgehog signaling pathways proteins (sonic hedgehog, Gli-1, SUFU, Smoothened with beta-actin) expressions in treated lanes of I (CC), 2 (PC #5), 3 (PC #3) and 4 (PC #1).
FIG. 7B illustrates sonic hedgehog target genes: Patched, p21, cyclin D1 with actin treated by CC (Lane 1) and PC #5 (Lane 2), PC #3 (Lane 3) and PC #1 (Lane 4).
as §2

[12] = test system: Panc-1 cells; experiment: Migration of Panc-1 cells in Bowden chamber; assay type: cell-based, human; details: 1 and 10 μM, 24 hours, compared with CC
Procedure: FIG. 4A illustrates effect of purified crocetin (PC) and crude crocetin (CC) on migration of Panc-1 cells. Panc-1 cells were incubated with PC and CC at concentrations of 1 and 10 μM in Bowden chamber for 24 hours and migration was studied.

[13] = test system: Panc-1 cells; experiment: Click-it EdU microplate proliferation assay; assay type: cell-based, human; details: for potency in proliferation assay relative to crude crocetin: Panc-1, 48-72 hours, versus CC; for inhibiting proliferation: Panc-1 cells
Procedure: as §3
[…] We have also used higher doses (25, 50 and 100 μM) in this experiment and it needs about 50-100 concentration of CC for inhibition of proliferation and increase of apoptosis at the level of 1 and 10 μm of PC. Treated cells were then labeled with Brdu and cells were assayed by Invitrogen Click-it Edu fluorimetric microplate proliferation kit and apoptosis assay kit.

[14] = test system: BxPc3 cells; experiment: Apoptosis assay in BxPC3 cells; assay type: cell-based, human; details: comparison to commercial crocetin
Procedure: (§4) FITC Annexin V and PI for flow cytometry provide a rapid and convenient assay for apoptosis. Treated and control cells were incubated with annexin V conjugate and propidium iodide (PI). Then cells were deposited onto slides for fluorescence microscopy. Cells were also used for flow cytometry analysis for live, apoptotic and dead cells using annexin V conjugated to green-fluorescent FITC dye and propidium iodide (PI). Propidium iodide stains necrotic cells with red fluorescence whereas green FITC dye stains apoptotic cells.

[15] = test system: human cells; details: cited from earlier work
[16] = test system: Akt; experiment: Western blot of Akt signaling in Panc-1 cells; assay type: cell-based, human; details: 10 mM, listed as PC
Procedure: as §1, §2

[17] = test system: Panc-1 cells; experiment: Apoptosis assay (apoptosis kit, Annexin V-FITC flow cytometry and fluorescence microscopy); assay type: cell-based, human; details: for potency in apoptosis assay relative to crude crocetin: Panc-1, 48-72 hours, versus CC; for stimulating apoptosis: Panc-1 cells
Procedure: as §4
We treated Panc-1 pancreatic cancer cells with either purified crocetin or PC (fraction 5 of FIG. 2A) derived from alkaline treatment or crude commercial crocetin or CC (1 and 10 μM concentrations) for 48-72 hours. We have also used higher doses (25, 50 and 100 μM) in this experiment and it needs about 50-100 concentration of CC for inhibition of proliferation and increase of apoptosis at the level of 1 and 10 μm of PC. Treated cells were then labeled with Brdu and cells were assayed by Invitrogen Click-it Edu fluorimetric microplate proliferation kit and apoptosis assay kit.

[18] = test system: MIA-PaCa-2 xenograft tumor; experiment: Pancreatic cancer xenograft tumor growth in athymic nude mice; assay type: in vivo; details: 0.5 mg/kg, oral, 0 to 21 days, in comparison to control
Procedure: FIG. 5 illustrates pancreatic cancer xenograft tumor growth in athymic (nude) mice. […] The tumor size was measured (right) from the start date of crocetin treatment (0 day) to end date of crocetin treatment (21 days) in comparison to control (no treatment). Number of animals is 5 in the control and treated group;
MIA-PaCa-2 cells (2.5×10^6) were injected into the right hind leg of each mouse for the development of tumor. The mice were divided into two groups (6 mice per group) with a control group and crocetin treatment group. After development of palpable tumor, the tumor size was measured twice in a week. When tumors are well established (approximately 0.34 cm^3); treatment was started. The treatment group received crocetin at 0.5 mg/kg/day orally dissolved in 15 ml of peptamen for 12 hours during dark for 30 days and the dose is in agreement with other investigators (References 14, 17, 20 and 27). Tumor size was monitored twice weekly, and its volume calculated as […], where a=length and b=width. Control group received only peptamen. The mice were given solid food during light time following liquid peptamen diet at dark. All mice were sacrificed after 30 days following treatment and tumors were taken out and stored at −80° C. […]

[19] = in comparison to commercial crocetin

Structure (SMILES): CC(/C=C/C=C(\C)C(=O)O)=C\C=C\C=C(C)\C=C\C=C(/C)C(=O)O [crocetin]
- ratio of Bax/Bcl-2 in pancreatic tumors ([1]; xenograft tumors, Western blot): significantly increased
- TUNEL assay positive cells in tumors ([1]; xenograft tumors, versus untreated): elevated markedly
- EGFR activity (ratio of phosphorylated and unphosphorylated form) in tumors [2]: significantly impaired
- EGFR expression and phosphorylation in tumors ([2]; versus untreated): significantly reduced
- LD50 [3]: 2000 mg/kg

Structure (SMILES): CC(C=CC=C(C)C(=O)O)=CC=CC=C(C)C=CC=C(C)C(=O)O [crocetinic acid]
- number and size of primary and secondary pancospheres (spheroid formation) [4]: decreased
- number and size of primary and secondary pancospheres (spheroid formation) ([4]; listed as #5): significant inhibition
- PCNA expression in tumors [5]: significantly decreased
- apoptosis by cleaved caspase 3 immunohistochemistry in tumors ([1]; daily treatment, versus vehicle): Increased apoptosis
- EGFR phosphorylation [6]: significantly inhibited
- cytotoxicity [7]: significant cytotoxicity
- DCLK-1 expression [8]: significantly inhibited
- DCLK-1 expression ([8]; listed as 5): reduction
- Bax/Bcl-2 ratio [9]: increase
- Bcl-2 [9]: decrease
- inhibition of proliferation [10]: significantly inhibited
- Gli1 expression ([11]; Western blot): inhibited
- SUFU expression ([11]; Western blot): inhibited
- smoothened expression ([11]; Western blot): inhibited
- cyclin D1 expression ([11]; Western blot, target protein): inhibited
- patched expression [11, 19]: increased expression
- sonic hedgehog (Shh) expression [11, 19]: significantly inhibited
- patched expression ([11]; in comparison to commercial crocetin, listed as 5): increased
- migration [12]: significantly inhibited
- inhibition in proliferation ([13]; 1 µM, compared with CC): highly potent inhibition
- potency in proliferation assay relative to crude crocetin ([13]; listed as #5): 50 times
- potency in proliferation assay relative to crude crocetin ([13]; listed as PC): 50 times
- potency in proliferation assay relative to crude crocetin ([13]; listed as purified crocetin): about 50 times
- inhibiting proliferation [13]: significantly inhibited
- inhibiting proliferation ([13]; listed as #5): promising effect
- stimulation of apoptosis [14]: stimulated apoptosis
- toxicity to human cells [15]: relatively nontoxic
- Akt expression and phosphorylation [16]: significantly inhibited
- apoptosis ([17]; 1 µM, compared with CC): increase
- potency in apoptosis assay relative to crude crocetin ([17]; listed as #5): 50 times
- potency in apoptosis assay relative to crude crocetin ([17]; listed as PC): 50 times
- potency in apoptosis assay relative to crude crocetin ([17]; listed as purified crocetin): about 50 times
- stimulating apoptosis [17]: stimulated apoptosis
- stimulating apoptosis ([17]; listed as #5): promising effect
- apoptosis by flow cytometry and fluorescence microscopy ([17]; lower doses): significant increase
- tumor growth [18]: significantly inhibited
